Assay results taken from patent US20220323455A1, “FUSED HETEROCYCLIC DERIVATIVES AS ANTIVIRAL AGENTS” (priority 2019, published 2022).

Test system: HBV
Test: HBV replication inhibition assay (BDNA assay) in HepG2.2.15 cells
Assay type: cell-based, Hepatitis B virus
Conditions: 6 days, encapsidated HBV DNA in supernatant
Method: HBV replication inhibition by the disclosed compounds were determined in cells infected or transfected with HBV or cells with stably integrated HBV, such as HepG2.2.15 cells (Sells et al. 1987). In this example, HepG2.2.15 cells were maintained in cell culture medium containing 10% fetal bovine serum (FBS), Geneticin, L-glutamine, penicillin and streptomycin. HepG2.2.15 cells were seeded in 96-well plates at a density of 40,000 cells/well and were treated with serially diluted compounds at a final DMSO concentration of 0.5% either alone or in combination by adding drugs in a checker box format. Cells were incubated with compounds for three days, after which medium was removed and fresh medium containing compounds was added to cells and incubated for another three days. At day 6, supernatant was removed and treated with DNase at 37° C. for 60 minutes, followed by enzyme inactivation at 75° C. for 15 minutes. Encapsidated HBV DNA was released from the virions and covalently linked HBV polymerase by incubating in lysis buffer (Affymetrix QS0010) containing 2.5 μg proteinase K at 50° C. for 40 minutes. HBV DNA was denatured by addition of 0.2 M NaOH and detected using a branched DNA (BDNA) QuantiGene assay kit according to manufacturer recommendation (Affymetrix). HBV DNA levels were also quantified using qPCR, based on amplification of encapsidated HBV DNA extraction with QuickExtraction Solution (Epicentre Biotechnologies) and amplification of HBV DNA using HBV specific PCR probes that can hybridize to HBV DNA and a fluorescently labeled probe for quantitation. In addition, cell viability of HepG2.2.15 cells incubated with test compounds alone or in combination was determined by using CellTitre-Glo reagent according to the manufacturer protocol (Promega). The mean background signal from wells containing only culture medium was subtracted from all other samples, and percent inhibition at each compound concentration was calculated by normalizing to signals from HepG2.2.15 cells treated with 0.5% DMSO using equation E1.
% inhibition(DMSOave−Xi)DMSOave×100% E1:
where DMSOave is the mean signal calculated from the wells that were treated with DMSO control (0% inhibition control) and Xi is the signal measured from the individual wells. EC50 values, effective concentrations that achieved 50% inhibitory effect, were determined by non-linear fitting using Graphpad Prism software (San Diego, Calif.) and equation E2.
Y=Ymin+(Ymax−Ymin)/(1+10(Log EC50−X)×HillSlope) E2:
where Y represents percent inhibition values and X represents the logarithm of compound concentrations.
Selected disclosed compounds were assayed in the HBV replication assay (BDNA assay), as described above, and a representative group of these active compounds is shown in Table 5.

Compound	EC50 [nM]	EC50 (Hepatitis B virus, HepG2.2.15, 144 h) [nM]
N#Cc1cc(NC(=O)N2CCc3nn4c(c3C2)C(F)(F)CC(CO)CC4)ccc1F (single isomer, unassigned) [Example 136, (R*)—N-(3-Cyano-4-fluorophenyl)-11,11-difluoro-9-(hydroxymethyl) -3,4,8,9,10,11-hexahydro-1H-pyrido[4′,3′:3,4]pyrazolo[1,5-a]azepine-2(7H)-carboxamide]	5	
COC(=O)NCC1CCC(F)(F)c2c3c(nn2C1)C[C@@H](C)N(C(=O)Nc1ccnc(C(F)F)c1F)C3 (single isomer, unassigned) [Example 107, Methyl (((3R,8R*)-2-((2-(difluoromethyl)-3-fluoropyridin-4-yl)carbamoyl)-11,11-difluoro-3-methyl-2,3,4,7,8,9,10,11-octahydro-1H-pyrido[4′,3′:3,4]pyrazolo[1,5-a]azepin-8-yl)methyl)carbamate]	8	
C[C@@H]1Cc2nn3c(c2CN1C(=O)Nc1ccnc(C(F)F)c1F)C(F)(F)CC(O)CC3 (single isomer, unassigned) [Example 121, (3R,9S*)—N-(2-(Difluoromethyl)-3-fluoropyridin-4-yl)-11,11-difluoro-9-hydroxy-3-methyl-3,4,8,9,10,11-hexahydro-1H-pyrido[4′,3′:3,4]pyrazolo[1,5-a]azepine-2(7H)-carboxamide]	8	
N#CCC1(O)CCC(F)(F)c2c3c(nn2C1)CCN(C(=O)Nc1ccnc(C(F)F)c1F)C3 (single isomer, unassigned) [Example 44, (S*)-8-(Cyanomethyl)-N-(2-(difluoromethyl)-3-fluoropyridin-4-yl)-11,11-difluoro-8-hydroxy-3,4,8,9,10,11-hexahydro-1H-pyrido[4′,3′:3,4]pyrazolo[1,5-a]azepine-2(7H)-carboxamide]	333	
C[C@@H]1Cc2nn3c(c2CN1C(=O)Nc1ccnc(Br)c1F)C(F)(F)CC(O)CC3 (single isomer, unassigned) [Example 117, (3R,9S*)—N-(2-Bromo-3-fluoropyridin-4-yl)-11,11-difluoro-9-hydroxyl-3-methyl-3,4,8,9,10,11-hexahydro-1H-pyrido[4′,3′:3,4]pyrazolo[1,5-a]azepine-2(7H)-carboxamide]	18	
C#CC1(O)CCC(F)(F)c2c3c(nn2C1)C[C@@H](C)N(C(=O)Nc1ccc(F)c(C#N)c1)C3 (single isomer, unassigned) [Example 98, (3R,8S*)—N-(3-Cyano-4-fluorophenyl)-8-ethynyl-11,11-difluoro-8-hydroxy-3-methyl-3,4,8,9,10,11-hexahydro-1H-pyrido[4′,3′:3,4]pyrazolo[1,5-a]azepine-2(7H)-carboxamide]	51	
O=C(Nc1ccnc(Br)c1F)N1CCc2nn3c(c2C1)C(F)(F)CCC(F)(CO)C3 (single isomer, unassigned) [Example 47, (S*)—N-(2-Bromo-3-fluoropyridin-4-yl)-8,11,11-trifluoro-8-(hydroxymethyl)-3,4,8,9,10,11-hexahydro-1H-pyrido[4′,3′:3,4]pyrazolo[1,5-a]azepine-2(7H)-carboxamide]	156	
N#Cc1cc(NC(=O)N2CCc3nn4c(c3C2)C(F)(F)CC(O)CC4)ccc1F (single isomer, unassigned) [Example 138, (R*)—N-(3-Cyano-4-fluorophenyl)-11,11-difluoro-9-hydroxy-3,4,8,9,10,11-hexahydro-1H-pyrido[4′,3′:3,4]pyrazolo[1,5-a]azepine-2(7H)-carboxamide]	1	
COC(=O)NCC1CCC(F)(F)c2c3c(nn2C1)C[C@@H](C)N(C(=O)Nc1ccc(F)c(C#N)c1)C3 (single isomer, unassigned) [Example 105, methyl (((3R,8R*)-2-((3-cyano-4-fluorophenyl)carbamoyl)-11,11-difluoro-3-methyl-2,3,4,7,8,9,10,11-octahydro-1H-pyrido[4′,3′:3,4]pyrazolo[1,5-a]azepin-8-yl)methyl)carbamate]	3	
C[C@@H]1Cc2nn3c(c2CN1C(=O)Nc1ccc(F)c(C#N)c1)C(F)(F)CCC(O)(CF)C3 (single isomer, unassigned) [Example 86, (3R,8S*)—N-(3-Cyano-4-fluorophenyl)-11,11-difluoro-8-(fluoromethyl)-8-hydroxy-3-methyl-3,4,8,9,10,11-hexahydro-1H-pyrido[4′,3′:3,4]pyrazolo[1,5-a]azepine-2(7H)-carboxamide]	20	
O=C(Nc1ccc(F)c(C(F)(F)F)c1)N1CCc2nn3c(c2C1)C(F)(F)CCC(CO)C3 (single isomer, unassigned) [Example 20, (S*)-11,11-Difluoro-N-(4-fluoro-3-(trifluoromethyl)phenyl)-8-(hydroxymethyl)-3,4,8,9,10,11-hexahydro-1H-pyrido[4′,3′:3,4]pyrazolo[1,5-a]azepine-2(7H)-carboxamide]	4	
C[C@@H]1Cc2nn3c(c2CN1C(=O)Nc1ccc(F)c(C#N)c1)C(F)(F)CC(O)(CF)CC3 (single isomer, unassigned) [Example 130, (3R,9S*)—N-(3-Cyano-4-fluorophenyl)-11,11-difluoro-9-(fluoromethyl)-9-hydroxy-3-methyl-3,4,8,9,10,11-hexahydro-1H-pyrido[4′,3′:3,4]pyrazolo[1,5-a]azepine-2(7H)-carboxamide]	2	
N#Cc1c(F)ccc(NC(=O)N2CCc3nn4c(c3C2)C(F)(F)CCC(CO)C4)c1F (single isomer, unassigned) [Example 25, (R*)—N-(3-Cyano-2,4-difluorophenyl)-11,11-difluoro-8-(hydroxymethyl)-3,4,8,9,10,11-hexahydro-1H-pyrido[4′,3′:3,4]pyrazolo[1,5-a]azepine-2(7H)-carboxamide]	34	
O=C(Nc1ccnc(Br)c1F)N1CCc2nn3c(c2C1)C(F)(F)CCC(F)(CO)C3 (single isomer, unassigned) [Example 48, (R*)—N-(2-Bromo-3-fluoropyridin-4-yl)-8,11,11-trifluoro-8-(hydroxymethyl)-3,4,8,9,10,11-hexahydro-1H-pyrido[4′,3′:3,4]pyrazolo[1,5-a]azepine-2(7H)-carboxamide]	11	
C#CC1(O)CCC(F)(F)c2c3c(nn2C1)CCN(C(=O)Nc1ccnc(C(F)F)c1F)C3 (single isomer, unassigned) [Example 66, (S*)—N-(2-(Difluoromethyl)-3-fluoropyridin-4-yl)-8-ethynyl-11,11-difluoro-8-hydroxy-3,4,8,9,10,11-hexahydro-1H-pyrido[4′,3′:3,4]pyrazolo[1,5-a]azepine-2(7H)-carboxamide]	149	
C#CC1(O)CCC(F)(F)c2c3c(nn2C1)C[C@@H](C)N(C(=O)Nc1ccnc(Br)c1F)C3 (single isomer, unassigned) [Example 96, (3R,8R*)—N-(2-Bromo-3-fluoropyridin-4-yl)-8-ethynyl-11,11-difluoro-8-hydroxy-3-methyl-3,4,8,9,10,11-hexahydro-1H-pyrido[4′,3′:3,4]pyrazolo[1,5-a]azepine-2(7H)-carboxamide]	35	
C[C@@H]1Cc2nn3c(c2CN1C(=O)Nc1ccnc(Br)c1F)C(F)(F)CCC(C(C)(C)O)C3 (single isomer, unassigned) [Example 104, (3R,8R*)—N-(2-Bromo-3-fluoropyridin-4-yl)-11,11-difluoro-8-(2-hydroxypropan-2-yl)-3-methyl-3,4,8,9,10,11-hexahydro-1H-pyrido[4′,3′:3,4]pyrazolo[1,5-a]azepine-2(7H)-carboxamide]	36	
C[C@@H]1Cc2nn3c(c2CN1C(=O)Nc1ccc(F)c(C#N)c1)C(F)(F)CC[C@H](CO)C3 (relative stereo) [Example 75]		5
C#CC1(O)CCC(F)(F)c2c3c(nn2C1)CCN(C(=O)Nc1ccnc(Br)c1F)C3 (single isomer, unassigned) [Example 65, (S*)—N-(2-Bromo-3-fluoropyridin-4-yl)-8-ethynyl-11,11-difluoro-8-hydroxy-3,4,8,9,10,11-hexahydro-1H-pyrido[4′,3′:3,4]pyrazolo[1,5-a]azepine-2(7H)-carboxamide]	144	
C[C@@H]1Cc2nn3c(c2CN1C(=O)Nc1ccnc(C(F)F)c1F)C(F)(F)CCC(F)(CO)C3 (single isomer, unassigned) [Example 113, (3R,8S*)—N-(2-(Difluoromethyl)-3-fluoropyridin-4-yl)-8,11,11-trifluoro-8-(hydroxymethyl)-3-methyl-3,4,8,9,10,11-hexahydro-1H-pyrido[4′,3′:3,4]pyrazolo[1,5-a]azepine-2(7H)-carboxamide]	154	
